{"source": "the supplement of paper PMC10307832", "assay_in_all_cases": "relative viability (nuclei count vs DMSO), 5 days (fraction); higher = more cells survive", "key": {"HCC-15": {"test_system": "HCC-15", "method_in_brief": "(§1)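 One day after seeding in 1536-well plates, lung cancer cell lines were dosed by pin tool. Dosing was either single-drug or a fixed anchor-drug dose plus five library-drug doses (not always all listed) in √10 steps. After 5 days, nuclei were stained in one fix-and-stain step and counted on 4× images, and relative viability is the nuclei count of treated wells over that of vehicle wells, given as the median of duplicate plates.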"}, "IA-LM": {"test_system": "IA-LM", "method_in_brief": "as §1"}, "LCLC-103H": {"test_system": "LCLC-103H", "method_in_brief": "as §1"}, "NCI-H1648": {"test_system": "NCI-H1648", "method_in_brief": "as §1"}, "NCI-H522": {"test_system": "NCI-H522", "method_in_brief": "as §1"}, "UMC-11": {"test_system": "UMC-11", "method_in_brief": "as §1"}}, "data": [{"smiles": "O=C(O)c1ccc(-c2c[nH]c3ncc(-c4ccccc4)cc23)cc1C1CCCC1", "note": "+ O=C(CCCCCCC(=O)Nc1ccccc1)NO [Vorinostat] (partner 1 µM)", "values": [{"measurement": "relative viability", "setting": "HCC-15; first compound 0.04 µM", "value": 0.848}, {"measurement": "relative viability", "setting": "HCC-15; first compound 0.1265 µM", "value": 0.872}, {"measurement": "relative viability", "setting": "HCC-15; first compound 0.4 µM", "value": 0.834}, {"measurement": "relative viability", "setting": "HCC-15; first compound 1.265 µM", "value": 0.59}, {"measurement": "relative viability", "setting": "IA-LM; first compound 0.04 µM", "value": 0.976}, {"measurement": "relative viability", "setting": "IA-LM; first compound 0.1265 µM", "value": 1.07}, {"measurement": "relative viability", "setting": "IA-LM; first compound 0.4 µM", "value": 1.13}, {"measurement": "relative viability", "setting": "IA-LM; first compound 1.265 µM", "value": 1.03}, {"measurement": "relative viability", "setting": "LCLC-103H; first compound 0.04 µM", "value": 0.777}, {"measurement": "relative viability", "setting": "LCLC-103H; first compound 0.1265 µM", "value": 0.758}, {"measurement": "relative viability", "setting": "LCLC-103H; first compound 0.4 µM", "value": 0.779}, {"measurement": "relative viability", "setting": "LCLC-103H; first compound 1.265 µM", "value": 0.76}, {"measurement": "relative viability", "setting": "NCI-H1648; first compound 0.04 µM", "value": 0.648}, {"measurement": "relative viability", "setting": "NCI-H1648; first compound 0.1265 µM", "value": 0.581}, {"measurement": "relative viability", "setting": "NCI-H1648; first compound 0.4 µM", "value": 0.331}, {"measurement": "relative viability", "setting": "NCI-H522; first compound 0.04 µM", "value": 0.932}, {"measurement": "relative viability", "setting": "NCI-H522; first compound 0.1265 µM", "value": 0.984}, {"measurement": "relative viability", "setting": "NCI-H522; first compound 0.4 µM", "value": 0.843}, {"measurement": "relative viability", "setting": "NCI-H522; first compound 1.265 µM", "value": 1.11}, {"measurement": "relative viability", "setting": "UMC-11; first compound 0.04 µM", "value": 0.419}, {"measurement": "relative viability", "setting": "UMC-11; first compound 0.1265 µM", "value": 0.321}, {"measurement": "relative viability", "setting": "UMC-11; first compound 0.4 µM", "value": 0.347}, {"measurement": "relative viability", "setting": "UMC-11; first compound 1.265 µM", "value": 0.219}]}, {"smiles": "NC(=O)Nc1cc(-c2cccc(F)c2)sc1C(=O)N[C@H]1CCCNC1", "note": "[AZD7762] + CC(=O)Nc1cccc(-n2c(=O)n(C3CC3)c(=O)c3c(Nc4ccc(I)cc4F)n(C)c(=O)c(C)c32)c1 [Trametinib] (partner 0.02 µM)", "values": [{"measurement": "relative viability", "setting": "HCC-15; first compound 0.01 µM", "value": 0.407}, {"measurement": "relative viability", "setting": "HCC-15; first compound 0.03162 µM", "value": 0.393}, {"measurement": "relative viability", "setting": "HCC-15; first compound 0.1 µM", "value": 0.413}, {"measurement": "relative viability", "setting": "HCC-15; first compound 0.3162 µM", "value": 0.351}, {"measurement": "relative viability", "setting": "HCC-15; first compound 1 µM", "value": 0.443}, {"measurement": "relative viability", "setting": "LCLC-103H; first compound 0.01 µM", "value": 0.683}, {"measurement": "relative viability", "setting": "LCLC-103H; first compound 0.03162 µM", "value": 0.674}, {"measurement": "relative viability", "setting": "LCLC-103H; first compound 0.1 µM", "value": 0.712}, {"measurement": "relative viability", "setting": "LCLC-103H; first compound 0.3162 µM", "value": 0.574}, {"measurement": "relative viability", "setting": "LCLC-103H; first compound 1 µM", "value": 0.712}, {"measurement": "relative viability", "setting": "NCI-H1648; first compound 0.01 µM", "value": 0.506}, {"measurement": "relative viability", "setting": "NCI-H1648; first compound 0.03162 µM", "value": 0.409}, {"measurement": "relative viability", "setting": "NCI-H1648; first compound 0.1 µM", "value": 0.513}, {"measurement": "relative viability", "setting": "NCI-H1648; first compound 0.3162 µM", "value": 0.446}, {"measurement": "relative viability", "setting": "NCI-H1648; first compound 1 µM", "value": 0.514}, {"measurement": "relative viability", "setting": "NCI-H522; first compound 0.01 µM", "value": 0.666}, {"measurement": "relative viability", "setting": "NCI-H522; first compound 0.03162 µM", "value": 0.822}, {"measurement": "relative viability", "setting": "NCI-H522; first compound 0.1 µM", "value": 0.737}, {"measurement": "relative viability", "setting": "NCI-H522; first compound 0.3162 µM", "value": 0.812}, {"measurement": "relative viability", "setting": "NCI-H522; first compound 1 µM", "value": 0.791}, {"measurement": "relative viability", "setting": "UMC-11; first compound 0.01 µM", "value": 0.678}, {"measurement": "relative viability", "setting": "UMC-11; first compound 0.03162 µM", "value": 0.696}, {"measurement": "relative viability", "setting": "UMC-11; first compound 0.1 µM", "value": 0.656}, {"measurement": "relative viability", "setting": "UMC-11; first compound 0.3162 µM", "value": 0.665}, {"measurement": "relative viability", "setting": "UMC-11; first compound 1 µM", "value": 0.33}]}, {"smiles": "NC(=O)Nc1cc(-c2cccc(F)c2)sc1C(=O)N[C@H]1CCCNC1", "note": "[AZD7762] + CC(=O)c1c(C)c2cnc(Nc3ccc(N4CCNCC4)cn3)nc2n(C2CCCC2)c1=O [Palbociclib] (partner 0.5 µM)", "values": [{"measurement": "relative viability", "setting": "HCC-15; first compound 0.01 µM", "value": 0.74}, {"measurement": "relative viability", "setting": "HCC-15; first compound 0.03162 µM", "value": 0.738}, {"measurement": "relative viability", "setting": "HCC-15; first compound 0.1 µM", "value": 0.802}, {"measurement": "relative viability", "setting": "HCC-15; first compound 0.3162 µM", "value": 0.676}, {"measurement": "relative viability", "setting": "HCC-15; first compound 1 µM", "value": 0.718}, {"measurement": "relative viability", "setting": "LCLC-103H; first compound 0.01 µM", "value": 0.438}, {"measurement": "relative viability", "setting": "LCLC-103H; first compound 0.03162 µM", "value": 0.479}, {"measurement": "relative viability", "setting": "LCLC-103H; first compound 0.1 µM", "value": 0.639}, {"measurement": "relative viability", "setting": "LCLC-103H; first compound 0.3162 µM", "value": 0.449}, {"measurement": "relative viability", "setting": "LCLC-103H; first compound 1 µM", "value": 0.544}, {"measurement": "relative viability", "setting": "NCI-H1648; first compound 0.01 µM", "value": 0.394}, {"measurement": "relative viability", "setting": "NCI-H1648; first compound 0.03162 µM", "value": 0.245}, {"measurement": "relative viability", "setting": "NCI-H1648; first compound 0.1 µM", "value": 0.277}, {"measurement": "relative viability", "setting": "NCI-H1648; first compound 0.3162 µM", "value": 0.27}, {"measurement": "relative viability", "setting": "NCI-H1648; first compound 1 µM", "value": 0.283}, {"measurement": "relative viability", "setting": "NCI-H522; first compound 0.01 µM", "value": 1.07}, {"measurement": "relative viability", "setting": "NCI-H522; first compound 0.03162 µM", "value": 0.987}, {"measurement": "relative viability", "setting": "NCI-H522; first compound 0.1 µM", "value": 0.999}, {"measurement": "relative viability", "setting": "NCI-H522; first compound 0.3162 µM", "value": 1.09}, {"measurement": "relative viability", "setting": "NCI-H522; first compound 1 µM", "value": 1}, {"measurement": "relative viability", "setting": "UMC-11; first compound 0.01 µM", "value": 0.373}, {"measurement": "relative viability", "setting": "UMC-11; first compound 0.03162 µM", "value": 0.302}, {"measurement": "relative viability", "setting": "UMC-11; first compound 0.1 µM", "value": 0.34}, {"measurement": "relative viability", "setting": "UMC-11; first compound 0.3162 µM", "value": 0.301}, {"measurement": "relative viability", "setting": "UMC-11; first compound 1 µM", "value": 0.231}]}, {"smiles": "NC(=O)Nc1cc(-c2cccc(F)c2)sc1C(=O)N[C@H]1CCCNC1", "note": "[AZD7762] + Nc1nc2[nH]cc(CCc3ccc(C(=O)N[C@@H](CCC(=O)O)C(=O)O)cc3)c2c(=O)[nH]1 [Pemetrexed] (partner 0.2 µM)", "values": [{"measurement": "relative viability", "setting": "HCC-15; first compound 0.01 µM", "value": 0.213}, {"measurement": "relative viability", "setting": "HCC-15; first compound 0.03162 µM", "value": 0.234}, {"measurement": "relative viability", "setting": "HCC-15; first compound 0.1 µM", "value": 0.232}, {"measurement": "relative viability", "setting": "HCC-15; first compound 0.3162 µM", "value": 0.209}, {"measurement": "relative viability", "setting": "HCC-15; first compound 1 µM", "value": 0.187}, {"measurement": "relative viability", "setting": "LCLC-103H; first compound 0.01 µM", "value": 0.464}, {"measurement": "relative viability", "setting": "LCLC-103H; first compound 0.03162 µM", "value": 0.498}, {"measurement": "relative viability", "setting": "LCLC-103H; first compound 0.1 µM", "value": 0.45}, {"measurement": "relative viability", "setting": "LCLC-103H; first compound 0.3162 µM", "value": 0.452}, {"measurement": "relative viability", "setting": "LCLC-103H; first compound 1 µM", "value": 0.394}, {"measurement": "relative viability", "setting": "NCI-H1648; first compound 0.01 µM", "value": 0.644}, {"measurement": "relative viability", "setting": "NCI-H1648; first compound 0.03162 µM", "value": 0.646}, {"measurement": "relative viability", "setting": "NCI-H1648; first compound 0.1 µM", "value": 0.704}, {"measurement": "relative viability", "setting": "NCI-H1648; first compound 0.3162 µM", "value": 0.553}, {"measurement": "relative viability", "setting": "NCI-H1648; first compound 1 µM", "value": 0.631}, {"measurement": "relative viability", "setting": "NCI-H522; first compound 0.01 µM", "value": 1.03}, {"measurement": "relative viability", "setting": "NCI-H522; first compound 0.03162 µM", "value": 1.05}, {"measurement": "relative viability", "setting": "NCI-H522; first compound 0.1 µM", "value": 0.862}, {"measurement": "relative viability", "setting": "NCI-H522; first compound 0.3162 µM", "value": 0.943}, {"measurement": "relative viability", "setting": "NCI-H522; first compound 1 µM", "value": 0.791}, {"measurement": "relative viability", "setting": "UMC-11; first compound 0.01 µM", "value": 0.833}, {"measurement": "relative viability", "setting": "UMC-11; first compound 0.03162 µM", "value": 0.797}, {"measurement": "relative viability", "setting": "UMC-11; first compound 0.1 µM", "value": 0.782}, {"measurement": "relative viability", "setting": "UMC-11; first compound 0.3162 µM", "value": 0.495}, {"measurement": "relative viability", "setting": "UMC-11; first compound 1 µM", "value": 0.369}]}]}
